Source: paper PMC7034075, “Exploring structure-activity relationship of S-substituted 2-mercaptoquinazolin-4(3H)-one including 4-ethylbenzenesulfonamides as human carbonic anhydrase inhibitors” (Journal of Enzyme Inhibition and Medicinal Chemistry, 2020)
Like-named read-outs stand apart in the source and are kept apart here.

Legend:
Assay in all cases: stopped-flow CO2 hydrase assay
Format in all cases: biochemical
hCA XII = biological target: T1, hCA XII (Homo sapiens, UniProt O43570)
T1 construct: gene CA12; recombinant, obtained in-house
Excerpt: stopped-flow CO2 hydrase assay on hCA XII

hCA IX = biological target: T2, hCA IX (Homo sapiens, UniProt Q16790)
T2 construct: gene CA9; recombinant, obtained in-house
Excerpt: stopped-flow CO2 hydrase assay on hCA IX

hCA I = biological target: T3, hCA I (Homo sapiens, UniProt P00915)
T3 construct: gene CA1; recombinant, obtained in-house
Excerpt: stopped-flow CO2 hydrase assay on hCA I

hCA II = biological target: T4, hCA II (Homo sapiens, UniProt P00918)
T4 construct: gene CA2; recombinant, obtained in-house
Excerpt: stopped-flow CO2 hydrase assay on hCA II

[1] = CO2 hydration, mean of […] assays

T1 sequence (O43570 25-354): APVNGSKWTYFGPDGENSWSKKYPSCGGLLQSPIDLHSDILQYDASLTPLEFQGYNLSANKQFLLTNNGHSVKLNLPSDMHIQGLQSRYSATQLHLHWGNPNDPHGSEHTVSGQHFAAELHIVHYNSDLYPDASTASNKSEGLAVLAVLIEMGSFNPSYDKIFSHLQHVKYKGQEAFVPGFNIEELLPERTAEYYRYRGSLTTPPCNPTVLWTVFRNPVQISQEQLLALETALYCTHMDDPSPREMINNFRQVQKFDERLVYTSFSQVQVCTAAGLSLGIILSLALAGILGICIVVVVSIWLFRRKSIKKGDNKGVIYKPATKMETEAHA
T3 sequence (P00915 2-261): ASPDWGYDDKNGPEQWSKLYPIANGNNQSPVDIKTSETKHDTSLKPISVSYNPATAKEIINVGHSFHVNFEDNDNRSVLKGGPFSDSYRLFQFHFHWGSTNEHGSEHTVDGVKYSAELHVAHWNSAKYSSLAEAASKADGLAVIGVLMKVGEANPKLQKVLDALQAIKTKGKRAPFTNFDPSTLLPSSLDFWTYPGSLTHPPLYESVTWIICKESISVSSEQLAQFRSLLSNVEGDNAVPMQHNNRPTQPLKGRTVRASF

SMILES: CSc1nc2ccccc2c(=O)n1CCc1ccc(S(N)(=O)=O)cc1 [compound 2, 4-(2-(2-(Methylthio)-4-oxoquinazolin-3(4H)-yl)ethyl)benzenesulfonamide]
- Ki (hCA XII): 3.1 nM
- Ki (hCA IX): 9.5 nM

SMILES: CCSc1nc2ccccc2c(=O)n1CCc1ccc(S(N)(=O)=O)cc1 [compound 3, 4-(2-(2-(Ethylthio)-4-oxoquinazolin-3(4H)-yl)ethyl)benzenesulfonamide]
- Ki (hCA XII): 3.9 nM
- Ki (hCA IX): 7.1 nM

SMILES: N#CCSc1nc2ccccc2c(=O)n1CCc1ccc(S(N)(=O)=O)cc1 [compound 4, 4-(2-(2-((Cyanomethyl)thio)-4-oxoquinazolin-3(4H)-yl)ethyl)benzenesulfonamide]
- Ki (hCA XII): 8.6 nM
- Ki (hCA IX): 12.6 nM

SMILES: NS(=O)(=O)c1ccc(CCn2c(SCc3ccccc3)nc3ccccc3c2=O)cc1 [compound 5, 4-(2-(2-(Benzylthio)-4-oxoquinazolin-3(4H)-yl)ethyl)benzenesulfonamide]
- Ki (hCA XII): 38.4 nM
- Ki (hCA IX): 50.7 nM

SMILES: NS(=O)(=O)c1ccc(CCn2c(SCc3ccc(Br)cc3)nc3ccccc3c2=O)cc1 [compound 6, 4-(2-(2-((4-Bromobenzyl)thio)-4-oxoquinazolin-3(4H)-yl)ethyl)benzenesulfonamide]
- Ki (hCA XII): 57 nM
- Ki (hCA IX): 64.1 nM

SMILES: NS(=O)(=O)c1ccc(CCn2c(SCc3ccc(Cl)cc3)nc3ccccc3c2=O)cc1 [compound 7, 4-(2-(2-((4-Chlorobenzyl)thio)-4-oxoquinazolin-3(4H)-yl)ethyl)benzenesulfonamide]
- Ki (hCA XII): 65.6 nM
- Ki (hCA IX): 34.2 nM

SMILES: N#Cc1ccc(CSc2nc3ccccc3c(=O)n2CCc2ccc(S(N)(=O)=O)cc2)cc1 [compound 8, 4-(2-(2-((4-Cyanobenzyl)thio)-4-oxoquinazolin-3(4H)-yl)ethyl)benzenesulfonamide]
- Ki (hCA XII): 17.6 nM
- Ki (hCA IX): 47.3 nM

SMILES: NS(=O)(=O)c1ccc(CCn2c(SCc3ccc(F)cc3)nc3ccccc3c2=O)cc1 [compound 9, 4-(2-(2-((4-Fluorobenzyl)thio)-4-oxoquinazolin-3(4H)-yl)ethyl)benzenesulfonamide]
- Ki (hCA XII; [1]): 17.2 nM
- Ki (hCA IX): 28.9 nM

SMILES: Cc1ccc(CSc2nc3ccccc3c(=O)n2CCc2ccc(S(N)(=O)=O)cc2)cc1 [compound 10, 4-(2-(2-((4-Methylbenzyl)thio)-4-oxoquinazolin-3(4H)-yl)ethyl)benzenesulfonamide]
- Ki (hCA XII): 28.2 nM
- Ki (hCA IX): 57.1 nM

SMILES: NS(=O)(=O)c1ccc(CCn2c(SCc3ccc([N+](=O)[O-])cc3)nc3ccccc3c2=O)cc1 [compound 11, 4-(2-(2-((4-Nitrobenzyl)thio)-4-oxoquinazolin-3(4H)-yl)ethyl)benzenesulfonamide]
- Ki (hCA XII): 25.6 nM
- Ki (hCA IX; [1]): 19.3 nM

SMILES: NS(=O)(=O)c1ccc(CCn2c(SCCN3CCCCC3)nc3ccccc3c2=O)cc1 [compound 12, 4-(2-(4-Oxo-2-((2-(piperidin-1-yl)ethyl)thio)quinazolin-3(4H)-yl)ethyl)benzenesulfonamide]
- Ki (hCA XII): 20.2 nM
- Ki (hCA IX): 22.4 nM
- Ki (hCA I): 532 nM

SMILES: NS(=O)(=O)c1ccc(CCn2c(SCCCN3C(=O)c4ccccc4C3=O)nc3ccccc3c2=O)cc1 [compound 13, 4-(2-(2-((3-(1,3-Dioxoisoindolin-2-yl)propyl)thio)-4-oxoquinazolin-3(4H)-yl)ethyl)benzenesulfonamide]
- Ki (hCA XII): 71.4 nM
- Ki (hCA IX): 93.6 nM
- Ki (hCA I): 321 nM
- Ki (hCA II): 86.6 nM
